In patent publication EP2326172B1, “ANTIFUNGAL AGENTS” (Scynexis, Inc., priority 2008, dated 2010):

These compounds were tested against T1, glucan synthase (GS) (Candida albicans, UniProt O13428) (assay: Glucan synthase inhibition (polymerization assay, 96-well, 3H-UDPG incorporation)). Details: not given.
T1 construct: Extraction of GS activity from membranes was performed at a protein concentration of 5 mg/mL in extraction buffer; endogenous in cells; host or cells: Candida albicans MY1055 (membrane fraction, detergent extract, product entrapment)
T1 sequence (O13428 1-1897): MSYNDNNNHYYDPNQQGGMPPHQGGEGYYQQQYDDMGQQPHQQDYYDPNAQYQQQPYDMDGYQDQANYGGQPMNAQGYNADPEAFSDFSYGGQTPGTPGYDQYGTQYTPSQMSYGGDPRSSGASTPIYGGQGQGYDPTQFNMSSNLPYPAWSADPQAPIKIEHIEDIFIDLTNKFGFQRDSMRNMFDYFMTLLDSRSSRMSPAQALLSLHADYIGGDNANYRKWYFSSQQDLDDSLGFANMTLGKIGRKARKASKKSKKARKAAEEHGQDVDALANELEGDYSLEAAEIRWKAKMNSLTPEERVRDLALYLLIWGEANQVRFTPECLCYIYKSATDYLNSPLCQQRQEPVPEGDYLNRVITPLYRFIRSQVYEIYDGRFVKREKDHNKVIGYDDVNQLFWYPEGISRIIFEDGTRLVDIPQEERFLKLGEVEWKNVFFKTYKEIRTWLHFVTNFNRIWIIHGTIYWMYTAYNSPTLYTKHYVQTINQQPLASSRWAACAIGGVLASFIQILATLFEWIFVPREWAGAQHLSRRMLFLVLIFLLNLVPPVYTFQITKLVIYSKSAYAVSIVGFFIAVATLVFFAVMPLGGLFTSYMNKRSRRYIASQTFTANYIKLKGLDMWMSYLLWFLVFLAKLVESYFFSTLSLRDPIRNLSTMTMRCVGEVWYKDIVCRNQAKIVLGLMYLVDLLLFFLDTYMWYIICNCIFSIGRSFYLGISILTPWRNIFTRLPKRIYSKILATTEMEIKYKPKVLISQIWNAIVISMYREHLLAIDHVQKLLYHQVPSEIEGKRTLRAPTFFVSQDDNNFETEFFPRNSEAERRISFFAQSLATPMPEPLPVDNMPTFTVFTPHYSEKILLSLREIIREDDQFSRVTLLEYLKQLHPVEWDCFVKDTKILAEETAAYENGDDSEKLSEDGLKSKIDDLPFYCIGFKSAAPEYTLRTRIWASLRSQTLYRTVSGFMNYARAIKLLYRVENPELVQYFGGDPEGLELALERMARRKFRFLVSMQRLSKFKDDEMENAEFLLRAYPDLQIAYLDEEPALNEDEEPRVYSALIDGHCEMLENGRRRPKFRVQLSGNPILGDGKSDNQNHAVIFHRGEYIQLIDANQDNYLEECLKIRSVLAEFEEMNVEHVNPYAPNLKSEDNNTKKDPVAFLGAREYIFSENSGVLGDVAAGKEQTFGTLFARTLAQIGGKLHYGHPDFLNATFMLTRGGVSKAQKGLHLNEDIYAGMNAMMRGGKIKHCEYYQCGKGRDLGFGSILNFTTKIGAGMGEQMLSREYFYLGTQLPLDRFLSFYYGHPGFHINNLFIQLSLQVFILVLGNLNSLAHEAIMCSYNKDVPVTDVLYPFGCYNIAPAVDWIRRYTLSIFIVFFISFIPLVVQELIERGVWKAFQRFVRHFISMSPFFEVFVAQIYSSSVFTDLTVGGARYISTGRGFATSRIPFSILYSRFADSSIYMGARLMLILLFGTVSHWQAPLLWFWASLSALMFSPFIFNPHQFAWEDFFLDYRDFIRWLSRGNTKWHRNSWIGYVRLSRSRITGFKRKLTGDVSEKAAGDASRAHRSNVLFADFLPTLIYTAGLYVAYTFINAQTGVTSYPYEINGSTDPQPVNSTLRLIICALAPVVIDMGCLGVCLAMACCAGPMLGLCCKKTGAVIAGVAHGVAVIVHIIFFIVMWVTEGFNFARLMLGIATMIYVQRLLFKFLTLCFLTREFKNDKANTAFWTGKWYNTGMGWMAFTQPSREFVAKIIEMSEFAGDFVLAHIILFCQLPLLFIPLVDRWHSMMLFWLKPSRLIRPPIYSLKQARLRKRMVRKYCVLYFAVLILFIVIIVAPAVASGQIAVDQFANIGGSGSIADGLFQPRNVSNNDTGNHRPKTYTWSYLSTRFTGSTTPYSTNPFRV
T1 sequence (O42825 1-195 partner limits assumed): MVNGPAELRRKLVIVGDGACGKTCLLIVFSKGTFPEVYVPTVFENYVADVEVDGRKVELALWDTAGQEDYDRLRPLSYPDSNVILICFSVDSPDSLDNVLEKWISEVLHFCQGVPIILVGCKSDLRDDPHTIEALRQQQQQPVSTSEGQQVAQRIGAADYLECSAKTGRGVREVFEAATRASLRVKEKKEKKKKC
Assay type: biochemical
Method: The in vitro evaluation of glucan synthase inhibitory activity of compounds was measured in a polymerization assay in 96-well format. Each well contained 100 µL of ^3H-UDPG at 0.5 mM (6000 to 8000 dpm/nmol), 50 mM HEPES pH 7.5 (Sigma), 10% w/v glycerol (Sigma), 1.5 mg/mL bovine serum albumin (Sigma A 9647. Lot 44H0190), 25 mM KF (Fisher), 1 mM EDTA (Gibco ULTRAPURE), 25 µM GTP-γ-S, enzyme sufficient to give 3 to 6 nmoles incorporation during the 60 min incubation at 22°C, and test compound added from wells in 3-fold serial dilutions in 100% DMSO (1 µL/well). The reaction was stopped by the addition of 100 µL of 20% trichloroacetic acid. Plates were chilled for a minimum of 10 min, and precipitated glucan collected by filtration on GF/C plates (Packard UNIFILTER®-96), washed with 5 cycles of water (about 1 mL/well each cycle) using a Packard FILTERMATE HARVESTER. 40 µL/well scintillation fluid (Packard ULTIMA GOLD TM-XR) was added and the sealed plates counted in a WALLAC BETA counter in top-counting mode at an efficiency of approximately 40%.
Stock solutions were stored at 10 mg/mL in DMSO at -20°C. For each new enzyme preparation, the initial titration performed started at 1 mg/mL, which was prepared by making a 10-fold dilution in DMSO (5 µL to 50 µL). 40 µL of this stock was placed in column 12 of a round-bottomed 96-well microtiter plate. 40 µL DMSO was added to columns 1 to 11 in the same row and ten 3-fold serial dilutions performed, by transferring 20 µL from column 12 to column 11 etc., with 4 mixings before each transfer. No test compound was transferred to from column 2 to column 1. Duplicate aliquots of 1 µL of all 12 dilutions were then transferred to the side walls of a 96-well Bioblock 1.1 mL plate (Fisher brand) to create two rows.
Graphs of the primary data were created in PRISM software (the average of two determinations) using PRISM's curve fitting program (sigmoidal dose response non-linear regression). The amount of compound required to inhibit glucan synthase activity by 50% in this assay (IC50 - ng/mL) was calculated.
Routine analysis was performed with glucan synthase (GS) prepared from Candida albicans MY1055 by the following procedure: MY1055 was grown in 10 liters YPD medium (10 g yeast extract, 20 g tryptone, 20 g glucose per liter) with vigorous shaking at 30°C, to early stationary phase. Cells were harvested by centrifugation, the pellet was washed and frozen at -70°C until breakage. Thawed pellets were shaken with an equal volume of breakage buffer (50 mM HEPES pH 7.4, 10% glycerol, 1 mM EDTA, 1 mM PMSF, 1mM DTT) and 4 times their weight of 0.5 mm acid washed glass beads for 2 hours at 4°C. Extent of breakage was assessed visually at 40x magnification. After low speed centrifugation to remove cell debris, the supernatant was centrifuged at 100,000 x g for 60 min. to separate membranes plus ribosomes from cytoplasmic components. Membranes were further washed two additional times with breakage buffer using the same centrifugation conditions and finally suspended in breakage buffer at 25 to 30 mg/mL protein (Biorad) for storage at -70°C. Extraction of GS activity from membranes was performed at a protein concentration of 5 mg/mL in extraction buffer (50mM NaPO4 pH 7.5, 0.1 M KCl, 0.1M Na citrate, 20% glycerol, 5 µM GTP-γ-S, 1mM DTT, 1 mM PMSF, 3 µg/mL pepstatin) plus 0.25% W1 by gentle mixing at 4°C for 60 min, followed by centrifugation at 100,000 x g for 60 min. After centrifugation, clear supernatant was removed from a pellet consisting of a hard layer usually with small amounts of gelatinous unextracted membranes above it.
Trapping was initiated immediately by 5-fold dilution in trapping buffer (50 mM HEPES pH 7.5, 10 mM KF, 1 mM EDTA, 2 mg/mL BSA) plus 2.5 mM UDPG and 10µM GTP-γ-S. After incubation at 25°C for 60 to 90 minutes, glucan was harvested by low speed centrifugation (3,000 x g, 10 min). […]
Compound `CC(C)[C@@H](C)[C@@]1(C)CC[C@]2(C)[C@H]3CC[C@@H]4[C@@]5(COC[C@@]4(C)[C@@H](OC[C@](C)(N)C(C)(C)C)[C@H](n4ncnc4-c4ccncc4)C5)C3=CC[C@@]2(C)[C@@H]1C(=O)O` [Example 173, (1S,4aR,6aS,7R,8R,10aR,10bR,12aR,14R,15R)-15-[[(2R)-2-amino-2,3,3-trimethylbutyl]oxy]-8-[(1R)-1,2-dimethylpropyl]-14-[5-(4-pyridinyl)-1H-1,2,4-triazol-1-yl]-1,6,6a,7,8,9,10,10a,10b,11,12,12a-dodecahydro-1,6a,8,10a-tetramethyl-4H-1,4a-propano-2H-phenanthro[1,2-c]pyran-7-carboxylic acid] has an IC50 of 0.822 nM.

Same assay, conditions: glucan synthase prepared from Candida albicans MY1055; 60 min incubation at 22°C; read-out: Candida Albicans GS IC50 (ng/mL) (converted)
Compound `CNC1(CO[C@H]2[C@H](n3ncnc3C(N)=O)C[C@@]34COC[C@]2(C)[C@@H]3CC[C@H]2C4=CC[C@@]3(C)[C@H](C(=O)O)[C@@](C)([C@H](C)C(C)C)CC[C@]23C)CCOCC1` [Example 46, (1S,4aR,6aS,7R,8R,10aR,10bR,12aR,14R,15R)-14-[5-(aminocarbonyl)-1H-1,2,4-triazol-1-yl]-8-[(1R)-1,2-dimethylpropyl]-15-[[tetrahydro-4-(methylamino)-2H-pyran-4-yl]methoxy]-1,6,6a,7,8,9,10,10a,10b,11,12,12a-dodecahydro-1,6a,8,10a-tetramethyl-4H-1,4a-propano-2H-phenanthro[1,2-c]pyran-7-carboxylic acid] has an IC50 of 8.45 nM.
`CC(C)[C@@H](C)[C@@]1(C)CC[C@]2(C)[C@H]3CC[C@@H]4[C@@]5(COC[C@@]4(C)[C@@H](OC[C@](C)(N)C(C)C)[C@H](n4ncnc4-c4cccnc4)C5)C3=CC[C@@]2(C)[C@@H]1C(=O)O` [Example 182, (1S,4aR,6aS,7R,8R,10aR,10bR,12aR,14R,15R)-15-[[(2R)-2-amino-2,3-dimethylbutyl]oxy]-8-[(1R)-1,2-dimethylpropyl]-14-[5-(3-pyridinyl)-1H-1,2,4-triazol-1-yl]-1,6,6a,7,8,9,10,10a,10b,11,12,12a-dodecahydro-1,6a,8,10a-tetramethyl-4H-1,4a-propano-2H-phenanthro[1,2-c]pyran-7-carboxylic acid] was tested, and the IC50 was 5.59 nM.
`CCCN[C@@](C)(CO[C@H]1[C@H](n2ncnc2C(=O)NC)C[C@@]23COC[C@]1(C)[C@@H]2CC[C@H]1C3=CC[C@@]2(C)[C@H](C(=O)O)[C@@](C)([C@H](C)C(C)C)CC[C@]12C)C(C)C` [Example 53, (1S,4aR,6aS,7R,8R,10aR,10bR,12aR,14R,15R)-8-[(1R)-1,2-dimethylpropyl]-15-[[(2R)-2,3-dimethyl-2-(propylamino)butyl]oxy]-14-[5-[(methylamino)carbonyl]-1H-1,2,4-triazol-1-yl]-1,6,6a,7,8,9,10,10a,10b,11,12,12a-dodecahydro-1,6a,8,10a-tetramethyl-4H-1,4a-propano-2H-phenanthro[1,2-c]pyran-7-carboxylic acid] was tested, and the IC50 was 42 nM.
`CC(C)[C@@H](C)[C@@]1(C)CC[C@]2(C)[C@H]3CC[C@@H]4[C@@]5(COC[C@@]4(C)[C@@H](OC[C@](C)(N)C(C)(C)C)[C@H](n4ncnc4-c4ccc[n+]([O-])c4)C5)C3=CC[C@@]2(C)[C@@H]1C(=O)O` [Example 261, (1S,4aR,6aS,7R,8R,10aR,10bR,12aR,14R,15R)-15-[[(2R)-2-amino-2,3,3-trimethylbutyl]oxy]-8-[(1R)-1,2-dimethylpropyl]-14-[5-(1-oxido-3-pyridinyl)-1H-1,2,4-triazol-1-yl]-1,6,6a,7,8,9,10,10a,10b,11,12,12a-dodecahydro-1,6a,8,10a-tetramethyl-4H-1,4a-propano-2H-phenanthro[1,2-c]pyran-7-carboxylic acid] was tested, and the IC50 was 2.68 nM.
For `CC(C)[C@@H](C)[C@@]1(C)CC[C@]2(C)[C@H]3CC[C@@H]4[C@@]5(COC[C@@]4(C)[C@@H](OC[C@](C)(N)C(C)(C)C)[C@H](n4ncnc4-c4ccnnc4)C5)C3=CC[C@@]2(C)[C@@H]1C(=O)O` [Example 202, (1S,4aR,6aS,7R,8R,10aR,10bR,12aR,14R,15R)-15-[[(2R)-2-amino-2,3,3-trimethylbutyl]oxy]-8-[(1R)-1,2-dimethylpropyl]-14-[5-(4-pyridazinyl)-1H-1,2,4-triazol-1-yl]-1,6,6a,7,8,9,10,10a,10b,11,12,12a-dodecahydro-1,6a,8,10a-tetramethyl-4H-1,4a-propano-2H-phenanthro[1,2-c]pyran-7-carboxylic acid], the IC50 was 0.274 nM.
For `CC(C)[C@@H](C)[C@@]1(C)CC[C@]2(C)[C@H]3CC[C@@H]4[C@@]5(COC[C@@]4(C)[C@@H](OC[C@](C)(N)C(C)C)[C@H](n4ncnc4C(=O)N(C)C)C5)C3=CC[C@@]2(C)[C@@H]1C(=O)O` [Example 50, (1S,4aR,6aS,7R,8R,10aR,10bR,12aR,14R,15R)-15-[[(2R)-2-amino-2,3-dimethylbutyl]oxy]-14-[5-[(dimethylamino)carbonyl]-1H-1,2,4-triazol-1-yl]-8-[(1R)-1,2-dimethylpropyl]-1,6,6a,7,8,9,10,10a,10b,11,12,12a-dodecahydro-1,6a,8,10a-tetramethyl-4H-1,4a-propano-2H-phenanthro[1,2-c]pyran-7-carboxylic acid], the IC50 was 12.7 nM.
`CNC(=O)c1ncnn1[C@@H]1C[C@@]23COC[C@](C)([C@@H]2CC[C@H]2C3=CC(=O)[C@@]3(C)[C@H](C(=O)O)[C@@](C)([C@H](C)C(C)C)CC[C@]23C)[C@H]1OC[C@](C)(NC)C(C)C` [Example 40, (1S,4aR,6aS,7R,8R,10aR,10bR,12aR,14R,15R)-15-[[(2R)-2,3-dimethyl-2-(methylamino)butyl]oxy]-8-[(1R)-1,2-dimethylpropyl]-14-[5-[(methylamino)carbonyl]-1H-1,2,4-triazol-1-yl]-1,6,6a,7,8,9,10,10a,10b,11,12,12a-dodecahydro-1,6a,8,10a-tetramethyl-6-oxo-4H-1,4a-propano-2H-phenanthro[1,2-c]pyran-7-carboxylic acid] showed an IC50 of 24.9 nM.
`CCN[C@@](C)(CO[C@H]1[C@H](n2ncnc2C(N)=O)C[C@@]23COC[C@]1(C)[C@@H]2CC[C@H]1C3=CC[C@@]2(C)[C@H](C(=O)O)[C@@](C)([C@H](C)C(C)C)CC[C@]12C)C(C)C` [Example 43, (1S,4aR,6aS,7R,8R,10aR,10bR,12aR,14R,15R)-14-[5-(aminocarbonyl)-1H-1,2,4-triazol-1-yl]-8-[(1R)-1,2-dimethylpropyl]-15-[[(2R)-2-(ethylamino)-2,3-dimethylbutyl]oxy]-1,6,6a,7,8,9,10,10a,10b,11,12,12a-dodecahydro-1,6a,8,10a-tetramethyl-4H-1,4a-propano-2H-phenanthro[1,2-c]pyran-7-carboxylic acid] showed an IC50 of 15.5 nM.
`CN[C@@](C)(CO[C@H]1[C@H](n2ncnc2-c2ccncc2)C[C@@]23COC[C@]1(C)[C@@H]2CC[C@H]1C3=CC[C@@]2(C)[C@H](C(=O)O)[C@@](C)([C@H](C)C(C)C)CC[C@]12C)C(C)(C)C` [Example 174, (1S,4aR,6aS,7R,8R,10aR,10bR,12aR,14R,15R)-8-[(1R)-1,2-dimethylpropyl]-14-[5-(4-pyridinyl)-1H-1,2,4-triazol-1-yl]-15-[[(2R)-2,3,3-trimethyl-2-(methylamino)butyl]oxy]-1,6,6a,7,8,9,10,10a,10b,11,12,12a-dodecahydro-1,6a,8,10a-tetramethyl-4H-1,4a-propano-2H-phenanthro[1,2-c]pyran-7-carboxylic acid] showed an IC50 of 2.69 nM.
